# Tests used:
# Asuc_0142 (DcuAAs) [1] = molecular target: T1, Asuc_0142 (DcuAAs) (Actinobacillus succinogenes, UniProt A6VKM5); test: inhibition of […] min […]fumarate uptake, E. coli IMW529 cells; type: cell-based; conditions: 100 µM [14C]fumarate; anaerobic, pH 7, 37 °C
# T1 construct: full-length gene from 130Z genomic DNA in pBAD30-derived pMB61 (pMB147), expressed in E. coli IMW529 lacking DcuA, DcuB, DcuC, TtdT and CitT
# Asuc_0142 (DcuAAs) [2] = molecular target: T1, Asuc_0142 (DcuAAs); test: as above; type: cell-based; conditions: read-out: % inhibition at 1 mM
SMILES,% inhibition at 1 mM (Asuc_0142 (DcuAAs) [1]),inhibition at 1000 µM (Asuc_0142 (DcuAAs) [2]) [%]
O=C(O)C[C@H](O)C(=O)O [L-malate],the inhibition by succinate and L-malate was only moderate,
O=C(O)CCC(=O)O [succinate],the inhibition by succinate and L-malate was only moderate,
O=C(O)/C=C/C(=O)O [fumarate],,82
N[C@@H](CC(=O)O)C(=O)O [L-aspartate],,95

# — article PMC10634366 (Microbiology, 2023)
